What was measured:
N2a cells = type: cell-based, Murine
N2aPK1 cells = type: cell-based, murine
[1] = system: Reporter T cells containing an integrated loxP-STOP-loxP GFP expression gene; type: cell-based
cells = settings: cited from earlier work

CCN(c1nc(N)c(C(=O)NC(=N)N)nc1Cl)C(C)C [EIPA]
cell surface association of rPrP^C-546 (N2a cells): did not block | cellular uptake of rPrP^C-546 (N2a cells): prevented the cellular uptake | PrP^C to PrP^Sc conversion (proteinase K resistant PrP) (N2aPK1 cells): concentration-dependent inhibition

C=C1[C@@H](C)[C@H]2[C@H](Cc3ccccc3)NC(=O)[C@]23[C@H](OC(C)=O)/C=C/[C@@](C)(O)C(=O)[C@@H](C)C/C=C/[C@H]3[C@@H]1O [cytochalasin D]
cell surface association of rPrP^C-546 (N2a cells): did not block | cellular uptake of rPrP^C-546 (N2a cells): prevented the cellular uptake

C[C@@H]1[C@H](O)[C@@H](C)/C=C/C=C/CC/C=C/C=C/C=C/C=C/C(O[C@H]2O[C@H](C)[C@@H](O)[C@H](N)[C@@H]2O)CC2O[C@](O)(CC(O)C(O)CCC(O)CC(O)CC(O)CC(=O)O[C@H]1C)CC(O)C2C(=O)O (stereo partly shown) [nystatin]
internalization of rPrP^C-Alexa546 (N2a cells): prevented

heparin
uptake of rPrP^C(23-90)-Cre into cells and subsequent DNA recombination (GFP-positive cells) [1]: inhibited protein uptake into cells and subsequent DNA recombination in a dose-dependent manner | surface binding of rPrP^C-Alexa546 (N2a cells): prevented | PrP^C infection of cells (cells): can prevent

chondroitin sulfate B
uptake of rPrP^C(23-90)-Cre into cells and subsequent DNA recombination (GFP-positive cells) [1]: inhibited protein uptake into cells and subsequent DNA recombination in a dose-dependent manner
